Measurements taken from ChEMBL document CHEMBL5154848, “Synthesis of heterocyclic ring-fused analogs of HMG499 as novel degraders of HMG-CoA reductase that lower cholesterol” (Eur J Med Chem, 2022).
Active and inactive are the calls of the source. No cut-off for these calls is given here.

Columns and labels:
[1] = Downregulation of HMGCR expression in CHO-K1 cells assessed as fold change in HMGCR expression at 1 uM incubated for 16 hrs by immunoblot analysis (reference value: 1.0); type: functional, Cricetulus griseus
[2] = Downregulation of lovastatin-induced HMGCR expression in CHO-K1 cells assessed as fold change in HMGCR expression at 1 uM incubated for 16 hrs by immunoblot analysis (reference value: 15.2); type: functional, Cricetulus griseus
[3] = Downregulation of lovastatin-induced HMGCR expression in CHO-K1 cells assessed as fold change in HMGCR expression at 3 uM incubated for 16 hrs by immunoblot analysis (reference value: 15.2); type: functional, Cricetulus griseus
[4] = Downregulation of HMGCR expression in CHO-K1 cells assessed as fold change in HMGCR expression at 10 uM incubated for 16 hrs by immunoblot analysis (reference value: 1.0); type: functional, Cricetulus griseus
[5] = biological target: T1, 3-hydroxy-3-methylglutaryl-coenzyme A reductase (Cricetulus griseus) (UniProt P00347); test: Induction of degradation of wild type HMGCR in CHO-K1 cells by immunoblot analysis; type: cell-based; settings: DDE = dose-dependent effect
T1 sequence (whole entry): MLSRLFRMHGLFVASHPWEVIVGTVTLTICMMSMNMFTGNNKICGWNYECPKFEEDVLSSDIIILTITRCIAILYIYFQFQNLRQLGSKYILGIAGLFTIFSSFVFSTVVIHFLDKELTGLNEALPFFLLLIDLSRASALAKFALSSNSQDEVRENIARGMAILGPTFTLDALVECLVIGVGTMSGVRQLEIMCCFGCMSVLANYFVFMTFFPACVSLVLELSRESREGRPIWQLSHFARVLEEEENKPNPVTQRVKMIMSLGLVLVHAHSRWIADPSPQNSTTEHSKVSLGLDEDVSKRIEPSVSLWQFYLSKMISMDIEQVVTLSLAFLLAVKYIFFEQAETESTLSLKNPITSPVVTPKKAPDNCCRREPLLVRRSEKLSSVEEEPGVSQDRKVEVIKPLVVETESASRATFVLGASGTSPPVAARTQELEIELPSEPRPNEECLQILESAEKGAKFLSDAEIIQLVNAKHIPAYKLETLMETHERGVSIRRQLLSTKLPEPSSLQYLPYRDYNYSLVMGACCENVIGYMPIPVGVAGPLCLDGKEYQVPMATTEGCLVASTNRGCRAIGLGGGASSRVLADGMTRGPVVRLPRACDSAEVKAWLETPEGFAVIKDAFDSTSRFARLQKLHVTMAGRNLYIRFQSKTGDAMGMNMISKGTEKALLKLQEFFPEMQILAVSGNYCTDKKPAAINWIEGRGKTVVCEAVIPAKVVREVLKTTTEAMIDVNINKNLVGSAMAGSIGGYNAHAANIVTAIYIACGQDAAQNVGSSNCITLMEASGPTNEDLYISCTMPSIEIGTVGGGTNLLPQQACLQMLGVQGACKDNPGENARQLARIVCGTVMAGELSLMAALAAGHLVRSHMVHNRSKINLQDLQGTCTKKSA

CHO-7 = test: Growth inhibition of CHO-7 cells at 0.3 to 10 uM cultured for 7 days in sterol depleted medium in the absence of cholesterol and measured on day 8 by crystal violet staining based microscopic analysis; type: functional, cell-based; settings: Cricetulus griseus, dose 0.3-10 µM, time 8.0 day
LX-2 [6] = test: Downregulation of TGF-beta-1-induced alpha-SMA mRNA levels in serum starved human LX2 cells pretreated with TGF-beta-1 for 6 hrs followed by compound treatment for 24 hrs by SYBR green dye based qRT-PCR analysis; type: functional, cell-based; settings: dose <= 2.0 µM, DDE = dose-dependent effect
LX-2 [7] = test: Downregulation of TGF-beta-1-induced TIMP1 mRNA levels in serum starved human LX2 cells pretreated with TGF-beta-1 for 6 hrs followed by compound treatment for 24 hrs by SYBR green dye based qRT-PCR analysis; type: functional, cell-based; settings: dose <= 2.0 µM, DDE = dose-dependent effect
LX-2 [8] = test: Downregulation of TGF-beta-1-induced TGF-beta-1 mRNA levels in serum starved human LX2 cells pretreated with TGF-beta-1 for 6 hrs followed by compound treatment for 24 hrs by SYBR green dye based qRT-PCR analysis; type: functional, cell-based; settings: dose <= 2.0 µM, DDE = dose-dependent effect
[9] = biological target: T2, 3-hydroxy-3-methylglutaryl-coenzyme A reductase (Cricetulus griseus, UniProt P00347); test: Induction of degradation of endogenous HMGCR in CHO-7 cells assessed as decrease in protein level incubated for 16 hrs in sterol-depleted medium by immunoblot analysis; type: cell-based
T2 sequence (P00347 whole entry): T1 sequence (whole entry)

SMILES: CC(=O)n1ncc2c1C(C)(C)C1=CC[C@H]3[C@@H]4CC[C@H]([C@H](C)CCC(=O)N5CCOCC5)[C@@]4(C)CC[C@@H]3[C@@]1(C)C2
- fold change (FC) [1]: 0.3
- fold change (FC) [2]: 2.4
- fold change (FC) [3]: 1
- fold change (FC) [4]: 0.1
- Activity [5]: Dde
- inhibition (CHO-7): Active
- Activity (LX-2 [6]): Dde
- Activity (LX-2 [7]): Dde
- Activity (LX-2 [8]): Dde
- EC50 [9]: 130 nM
